The results in this text go back to US7326710B2, “Aralkyl formyl-alkyl piperazine derivatives and their uses as a cerebral nerve protective agent” (Shanghai Institute of Pharmaceutical Industry, priority 2002, dated 2008).

Read-outs that look alike come from different tables or passages of the source.

Assay [1] relates to anoxia induced by sodium nitrite in mice. Description: Anti-cerebral anoxia in mice, anoxia induced by sodium nitrite. The following applies: sodium nitrite 225 mg/kg ip, compound 20 mg/kg sc; for ILS at 20 mg/kg: Mus musculus, sc. It is filed as in vivo. Here is the method:
The rates of the prolongation of 9 compounds (IV-2, 10, 23, 32, 34, 36, 39, 40, 41) were more than 50%, which indicated the effect of anti-cerebral anoxia. IV-23 and IV-2 prolonged the survival duration by 100% of the animals, showing remarkably protective action for cerebral anoxia. (Table 3)
One model was established to test the time needed for mice to die because of anoxia caused by sodium nitrite (225 mg/kg, ip). IV-23 (20 mg/kg, sc) can prolong the time for 100%, indicating significant anti-cerebral anoxic anoxia activity.

For the next assay, the system named is NMDA receptor. Description: Maximum contraction of isolated guinea pig longitudinal ileum muscle preparations induced by L-Glu. The following applies: for excitation: concentration, direct excitation of the preparation; for Glu-like excited action: excite preparations directly and induce contraction; for antagonism % (restrain rate of contraction of preparations): compound 10^−5M, contraction induced by L-Glu. The text has this:
According to the literature (Luzzi, Br J Pharmacol, 95:1271, 1988), maximum contraction of isolated longitudinal ileomuscle preparations of guinea pig induced by L-Glu, were used to examine the activities of the compounds on the NMDA receptor.

Assay [2] relates to focal cerebral ischemia in rats. Description: Focal cerebral ischemia in rats by occlusion of middle cerebral artery (MCA). The conditions noted are these: 20 mg/kg p.o. It is filed as in vivo. The procedure: The focal ischemia rat model by occlusion of middle cerebral artery (MCA) was used to determine the protective effects of the compounds on focal cerebral ischemia. The infarct size after focal cerebral ischemia and the weight percentage of cerebral hemisphere were calculated to evaluate the compounds' effects on focal cerebral ischemia.

Where [3] appears, read: read-out: Prolonging the survival duration (%), mice.
The mark [4] stands for this setting: mice, read-out: Prolonging the survival duration (%).

Turning to `CC(C(=O)c1ccccc1)N1CCN(CC(=O)c2ccccc2)CC1` (stereo not shown) [IV-13, N^1-(1-benzoylethyl)-N^4-phenacyl-piperazine], the ILS at 20 mg/kg in assay [1] (setting [3]) came out at 32%. On to `CC(C(=O)c1ccccc1)N1CCN(C(=O)Cc2ccccc2O)CC1` (stereo not shown) [IV-18, N^1-(1-benzoylethyl)-N^4-[(2-hydroxy)phenylacetyl] piperazine], for which the ILS at 20 mg/kg in assay [1] (setting [3]) was 25%. Take `CC(C(=O)c1ccccc1)N1CCN(C(C)C(=O)c2ccccc2)CC1` (stereo not shown) [IV-10, N^1,N^4-di (1-benzoylethyl) piperazine]: the excitation with NMDA receptor (unit not given) is reported as 10^−5. For the same compound, the Glu-like excited action entry in the assay on NMDA receptor is on record as “could excite preparations directly”. Besides, the ILS at 20 mg/kg in assay [1] (setting [3]) is over 50%.

On to `O=C(CN1CCN(CC(=O)NCc2ccccc2)CC1)NCc1ccccc1` [IV-25, N^1,N^4-di[2-(benzylamino)-2-oxo-ethyl] piperazine], for which the ILS at 20 mg/kg in assay [1] (setting [4]) stood at 30%. In the case of `CC(C(=O)c1ccccc1)N1CCN(C(=O)C(O)c2ccc(Cl)cc2)CC1` (stereo not shown) [IV-17, N^1-(1-benzoylethyl)-N^4-[2-hydroxy-2-(4-chlorophenyl)acetyl] piperazine], the ILS at 20 mg/kg in assay [1] (setting [3]) amounted to 14%. Regarding `O=C(CN1CCN(S(=O)(=O)Cc2ccc(C(F)(F)F)cc2)CC1)c1ccccc1` [IV-55, N^1-phenacyl-N^4-(4-trifluoromethylbenzylsulfonyl) piperazine], the ILS at 20 mg/kg in assay [1] (setting [4]) was 4%.

As to `CC(C(=O)c1ccccc1)N1CCN(C(=O)[C@@H](O)c2ccccc2)CC1` (stereo partly shown) [IV-44, N^1-(S-2-hydroxy-1-oxo-2-phenylethyl)-N^4-(1-benzoylethyl) piperazine], the “Prolonging the survival duration (%)” value in assay [1] (mice) is 3%. As for `COc1ccc2cc(C(=O)C(C)N3CCN(CC(=O)c4ccccc4)CC3)ccc2c1Cl` (stereo not shown) [IV-20, N^1-phenacyl-N^4-[1-(5-chloro-6-methoxy-2-naphthoyl)ethyl]piperazine], in assay [2], the “Infarct volume” value worked out at 0.14 ± 0.04 g, the “Neurological deficit After operation” value amounted to 9.5 ± 0.6 and the “Percentage of infarct volume (%)” value is on record as 18.80 ± 5.61 %. The “Neurological deficit 24 h” value in assay [2] (24 h after operation) was found to be 8.8 ± 1.3. Regarding `O=C(CN1CCN(S(=O)(=O)Cc2ccccc2CS(=O)(=O)c2ccccc2)CC1)c1ccccc1` [IV-54, N^1-phenacyl-N^4-[2-(benzenesulfonylmethyl)benzylsulfonyl] piperazine], the ILS at 20 mg/kg in assay [1] (setting [4]) was found to be 25%. Still for that read-out and setting: the figure for `O=C(CN1CCN(C(=O)C(O)c2ccc(Cl)cc2)CC1)c1ccccc1` (stereo not shown) [IV-19, N^1-phenacyl-N^4-[2-hydroxy-2-(4-chlorophenyl)acetyl] piperazine] is 18%.

Take `O=C(CN1CCN(CC(O)c2ccccc2)CC1)NCc1ccccc1` (stereo not shown) [IV-37, N^1-[2-(benzylamino)-2-oxo-ethyl]-N^4-(2-phenylethyl-2-ol) piperazine]: in assay [1] (mice), the “Prolonging the survival duration (%)” value was determined as 13%. As for `O=C(CN1CCN(S(=O)(=O)Cc2ccc(-c3ccccc3)cc2)CC1)c1ccccc1` [IV-56, N^1-phenacyl-N^4-(4-phenylbenzylsulfonyl) piperazine], the ILS at 20 mg/kg in assay [1] (setting [4]) is 25%. With `COc1ccc(C(=O)CN2CCN(C(=O)Cc3ccccc3O)CC2)cc1` [IV-16, N^1-(4-methoxyphenacyl)-N^4-[(2-hydroxy)phenylacetyl] piperazine], the ILS at 20 mg/kg in assay [1] (setting [3]) was 30%. As for `O=C(CN1CCN(S(=O)(=O)Cc2ccc([N+](=O)[O-])cc2)CC1)NCc1ccccc1` [IV-64, N^1-[2-(benzylamino)-2-oxo-ethyl]-N^4-(4-nitrobenzylsulfonyl) piperazine], in assay [1] (setting [4]), the ILS at 20 mg/kg came out at 20%.

For the compound `O=C(CN1CCN(CC(=O)c2ccccc2)CC1)c1ccccc1` [IV-2, N^1,N^4-diphenacyl-piperazine], the “antagonism % (restrain rate of contraction of preparations)” value with NMDA receptor was 25%. Regarding `COc1ccc2cc(C(=O)C(C)N3CCN(CC(=O)NC(C)c4ccccc4)CC3)ccc2c1Cl` (stereo not shown) [IV-49, N^1-[1-(5-chloro-6-methoxy-2-naphthoyl)ethyl]-N^4-[2-(1-phenylethanamino)-2-oxo-ethyl] piperazine], the “Prolonging the survival duration (%)” value in assay [1] (mice) was 30%. Turning to `CC(C(=O)c1ccccc1)N1CCN(CC(=O)NCc2ccccc2)CC1` (stereo not shown) [IV-26, N^1-(1-benzoylethyl)-N^4-[2-(benzylamino)-2-oxo-ethyl] piperazine], the ILS at 20 mg/kg in assay [1] (setting [3]) amounted to 36%.

On to `N#Cc1ccccc1-c1ccc(CS(=O)(=O)N2CCN(CC(=O)NCc3ccccc3)CC2)cc1` [IV-61, N^1-[2-(benzylamino)-2-oxo-ethyl]-N^4-[4-(2-cyanophenyl)benzylsulfonyl] piperazine], for which, in assay [1] (setting [4]), the ILS at 20 mg/kg was found to be 22%.

Take `CC(C(=O)c1ccccc1)N1CCN(CC(=O)c2ccccc2)CC1` (stereo not shown) [IV-8, N^1-(1-benzoylethyl)-N^4-phenacyl-piperazine]: in the assay with NMDA receptor, the “antagonism % (restrain rate of contraction of preparations)” value came to 25%. Moreover, in assay [1] (mice), the “Prolonging the survival duration (%)” value came to 21%. Regarding `O=C(CN1CCN(CC(=O)c2ccccc2)CC1)Nc1ccccc1` [IV-24, N^1-phenacyl-N^4-[2-(phenylamino)-2-oxo-ethyl] piperazine], in assay [1] (setting [4]), the ILS at 20 mg/kg was found to be 34%. Still for that read-out and setting: under `O=C(CN1CCN(S(=O)(=O)Cc2ccc(Oc3ccccc3)cc2)CC1)c1ccccc1` [IV-53, N^1-phenacyl-N^4-(4-phenoxybenzylsulfonyl) piperazine] stands 15%; under `O=C(CN1CCN(S(=O)(=O)Cc2ccccc2CS(=O)(=O)c2ccccc2)CC1)NCc1ccccc1` [IV-62, N^1-[2-(benzylamino)-2-oxo-ethyl]-N^4-[2-(benzenesulfonylmethyl)benzylsulfonyl] piperazine], 36%. `N[C@@H](CCC(=O)O)C(=O)O` [L-Glu, reference compound]: the excitation in the assay with NMDA receptor (unit not given) is reported as 3.89 × 10^−5. `O=C(CN1CCN(CC(=O)c2ccc3ccccc3c2)CC1)c1ccccc1` [IV-7, N^1-(2-naphthoylmethyl)-N^4-phenacyl-piperazine]: the “antagonism % (restrain rate of contraction of preparations)” value in the assay on NMDA receptor amounted to 25%. Moreover, in assay [1] (setting [4]), the ILS at 20 mg/kg was 21%. Take `O=C(CN1CCN(CC(=O)c2ccc(Cl)cc2)CC1)c1ccc(Cl)cc1` [IV-6, N^1,N^4-di (4-chlorophenacyl) piperazine]: the “antagonism % (restrain rate of contraction of preparations)” value with NMDA receptor turned out to be 25%. Moreover, the ILS at 20 mg/kg in assay [1] (setting [4]) amounted to 4%. Consider `O=C(c1ccc([N+](=O)[O-])cc1)N1CCN(CC(O)c2ccccc2)CC1` (stereo not shown) [IV-35, N^1-(4-nitrobenzoyl)-N^4-(2-phenylethyl-2-ol) piperazine], for which the excitation with NMDA receptor (unit not given) was 3 × 10^−5. Also, the Glu-like excited action entry with NMDA receptor is “could excite preparations directly”. Besides, the “Prolonging the survival duration (%)” value in assay [1] (mice) is listed as 42%. As for `O=C(CN1CCN(CC(=O)c2ccc(Cl)cc2)CC1)c1ccccc1` [IV-5, N^1-phenacyl-N^4-(4-chlorophenacyl) piperazine], the “antagonism % (restrain rate of contraction of preparations)” value in the assay with NMDA receptor is listed as 30%. Further, the ILS at 20 mg/kg in assay [1] (setting [4]) turned out to be 22%. `O=C(CN1CCN(C(=O)c2ccccc2)CC1)c1ccccc1` [IV-1, N^1-benzoyl-N^4-phenacyl-piperazine]: the excitation in the assay with NMDA receptor (unit not given) was 3 × 10^−6. Further, the Glu-like excited action entry in the assay on NMDA receptor is “could excite preparations directly”. Besides, the ILS at 20 mg/kg in assay [1] (setting [4]) came out at 3%. The like results for `COc1ccc(C(=O)CN2CCN(CC(=O)c3ccccc3)CC2)cc1` [IV-9, N^1-phenacyl-N^4-(4-methoxyphenacyl) piperazine] were, in that order, 10^−5, “could excite preparations directly” and 30%. On to `O=C(CN1CCN(C(=O)c2ccc([N+](=O)[O-])cc2)CC1)c1ccccc1` [IV-3, N^1-(4-nitrobenzoyl)-N^4-phenacyl-piperazine], for which the “antagonism % (restrain rate of contraction of preparations)” value in the assay on NMDA receptor is 37%. Besides, the ILS at 20 mg/kg in assay [1] (setting [4]) amounted to 7%. Take `O=C(CN1CCN(CC(=O)c2ccc([N+](=O)[O-])cc2)CC1)c1ccccc1` [IV-11, N^1-phenacyl-N^4-(4-nitrophenacyl) piperazine]: in the assay on NMDA receptor (unit not given), the excitation is on record as 10^−5. Besides, in the assay with NMDA receptor, the Glu-like excited action entry is “could excite preparations directly”. In addition, the ILS at 20 mg/kg in assay [1] (setting [4]) worked out at 2%. As to `CNC1(c2ccccc2Cl)CCCCC1=O` (stereo not shown) [Ket, Ketamine, reference compound], the “antagonism (value printed as a concentration in the antagonism % column)” value in the assay on NMDA receptor (positive control, unit not given) was 5.61 × 10^−7. On to `O=C(CN1CCN(CC(=O)c2ccccc2)CC1)NCc1ccc2c(c1)OCO2` [IV-32, N^1-phenacyl-N^4-[2-(3,4-methylenedioxybenzylamino)-2-oxo-ethyl] piperazine], for which, in assay [1] (setting [4]), the ILS at 20 mg/kg was over 50%. As to `CC(C(O)c1ccc(O)cc1)N1CCC(Cc2ccccc2)CC1` (stereo not shown) [Ifenprodil, reference compound], in the assay with NMDA receptor, the “antagonism % (restrain rate of contraction of preparations)” value is reported as 41%(10^−5). `N#Cc1ccccc1-c1ccc(CS(=O)(=O)N2CCN(CC(=O)c3ccccc3)CC2)cc1` [IV-58, N^1-phenacyl-N^4-[4-(2-cyanophenyl)benzylsulfonyl] piperazine]: the ILS at 20 mg/kg in assay [1] (setting [4]) was 25%. `O=C(c1ccccc1)N1CCN(CC(O)c2ccccc2)CC1` (stereo not shown) [IV-34, N^1-benzoyl-N^4-(2-phenylethyl-2-ol) piperazine]: the “antagonism % (restrain rate of contraction of preparations)” value with NMDA receptor was 25%.

For the compound `N#Cc1cccc(CS(=O)(=O)N2CCN(CC(=O)c3ccccc3)CC2)c1` [IV-48, N^1-phenacyl-N^4-(3-cyanophenylmethylsulfonyl) piperazine], in assay [1] (setting [4]), the ILS at 20 mg/kg was 16%.
